Nine molecules from patent publication US20240189287A1, “PERIPHERALLY RESTRICTED CB1 RECEPTOR BLOCKERS AND USES THEREOF” (BIONANOSIM (BNS) LTD, priority 2021, published 2024) can be followed below.

The target of series [1] is CB1 receptor (Homo sapiens (Human), UniProt P21554). The experiment in a line: CB1 receptor radioligand binding assay, membranes from human source. The conditions noted are these: human (h) CB1 receptor; read-out: CB1R Ki (nM) (h). As for the experimental part: (§1) Radioligand binding assays: Binding affinity was determined by a radioligand binding assay. The different BB8-conjugates binding to CB1 and CB2 receptors was assessed in competition displacement assays using [^3H]CP-55.940 as the radioligand and crude membranes from mouse brain for CB1 receptor and human kidney cells for CB2 receptor.
Chain of CB1 receptor (Homo sapiens (Human), UniProt P21554) (P21554 whole entry): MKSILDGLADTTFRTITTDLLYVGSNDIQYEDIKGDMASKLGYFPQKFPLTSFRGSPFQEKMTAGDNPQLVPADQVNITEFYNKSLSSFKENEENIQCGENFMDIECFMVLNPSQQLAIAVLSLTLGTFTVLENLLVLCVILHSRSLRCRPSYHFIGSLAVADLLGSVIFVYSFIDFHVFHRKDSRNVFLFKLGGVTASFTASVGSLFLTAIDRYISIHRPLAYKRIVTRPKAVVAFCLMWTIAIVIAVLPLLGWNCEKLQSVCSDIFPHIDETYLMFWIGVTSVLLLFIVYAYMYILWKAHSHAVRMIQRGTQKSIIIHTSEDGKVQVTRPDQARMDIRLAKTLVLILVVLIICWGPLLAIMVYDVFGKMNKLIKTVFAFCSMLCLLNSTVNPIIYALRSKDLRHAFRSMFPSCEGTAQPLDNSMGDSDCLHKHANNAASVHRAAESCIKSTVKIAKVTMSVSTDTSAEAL
(§2) CB1 receptor binding assay: Mouse brain membranes were used as the source material for CB1 receptors. The displacement of specifically bound tritiated CP-55.940 from these membranes using a standard filtration assay was used to determine the Ki values for the test compounds. Briefly. 20 μg of protein was incubated for 1 h at 30° C. in the presence of 0.5 nM [^3H]CP-55,940 and various concentrations (10^−5M-10^−11M) of test compound/control, final volume of 1 mL. The incubation was terminated by rapid filtration and washing, and the amount of specifically bound [^3H]CP-55,940 was determined. Briefly, membranes with bound [^3H]CP-55,940 were separated and washed from free ligand by vacuum filtration, adsorbing the membrane onto a Whatman glass microfiber filter paper ([…], Cat #1821271). Finally, the Whatman filter paper with adsorbed membranes was cut and placed in scintillation liquid (Ultima Gold) for 1 h at 25° C. followed by a β counter reading of bound [^3H]CP-55,940 radioligand. All data were in triplicates with Ki values determined using GraphPad Prism 7.02 analysis software. […] In some cases, membranes from human source were used to determine CB1 receptor binding affinity.

The target in series [2] is T1, CB1 receptor (Mus musculus (Mouse), UniProt P47746). The experiment in a line: CB1 receptor radioligand binding assay, [3H]CP-55,940 displacement, mouse brain membranes. The conditions noted are these: mouse (m) CB1 receptor; read-out: CB1R Ki (nM) (m). As for the experimental part: as §1, §2
T1 sequence (P47746 whole entry): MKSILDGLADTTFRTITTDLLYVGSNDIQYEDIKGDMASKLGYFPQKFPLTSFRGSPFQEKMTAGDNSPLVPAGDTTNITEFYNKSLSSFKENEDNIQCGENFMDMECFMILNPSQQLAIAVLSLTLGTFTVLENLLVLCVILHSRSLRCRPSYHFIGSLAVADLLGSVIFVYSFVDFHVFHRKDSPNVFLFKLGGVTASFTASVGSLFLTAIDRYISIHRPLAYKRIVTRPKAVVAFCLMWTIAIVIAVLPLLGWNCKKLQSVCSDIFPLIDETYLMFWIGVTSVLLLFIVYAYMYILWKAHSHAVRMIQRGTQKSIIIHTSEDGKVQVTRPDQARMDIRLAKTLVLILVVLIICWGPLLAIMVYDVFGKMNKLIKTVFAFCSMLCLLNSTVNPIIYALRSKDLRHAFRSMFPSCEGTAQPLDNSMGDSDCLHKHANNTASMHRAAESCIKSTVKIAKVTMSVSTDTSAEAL
A further series has as its target CB2 receptor (Homo sapiens (Human), UniProt P34972). The experiment in a line: CB2 receptor radioligand binding assay, [3H]CP-55,940 displacement, human kidney membranes. To be noted: read-out: hCB2R Ki. As for the experimental part: as §1
CB2 receptor binding assay: Human kidney membranes were used as the source material for CB2 receptors. The displacement of specifically bound tritiated CP-55,940 from these membranes using a standard filtration assay was used to determine the Ki values for the test compounds. Briefly, 1.25 μg of protein was incubated for 1.5 h at 30° C. in the presence of 0.5 nM [^3H]CP-55,940 and various concentrations (10^−5M-10^−11M) of test compound/control, final volume of 1 mL. The incubation was terminated by rapid filtration and washing, and the amount of specifically bound [^3H]CP-55,940 was determined. Briefly, membranes with bound [^3H]CP-55,940 were separated and washed from free ligand by vacuum filtration, adsorbing the membrane onto a Whatman glass microfiber filter paper ([…], Cat #1821271). Finally, the Whatman filter paper with adsorbed membranes was cut and placed in scintillation liquid (Ultima Gold) for 1 h at 25° C. followed by a β counter reading of bound [^3H]CP-55,940 radioligand. All data were in triplicates with Ki values determined using GraphPad Prism 7.02 analysis software.

Series [3] addresses T1, CB1 receptor. The experiment in a line: [35S]GTPγS binding assay for CB1 receptor, mouse brain membranes. The series is classed as biochemical. The conditions noted are these: nature of binding: agonist/antagonist/inverse agonist. As for the experimental part:
For CB1 receptor-mouse brains were dissected and P2 membranes prepared and resuspended at ˜2 μg protein/μL in 1 ml assay buffer (50 mM Tris HCl, 9 mM MgCl2, 0.2 mM EDTA, 150 mM NaCl; pH 7.4). Ligand-stimulated [^35S]GTPγS binding was assayed as described previously (Tam et al., JCI 2010). Briefly, membranes (10 μg protein) were incubated in assay buffer containing 100 μM GDP, 0.05 nM [^35S]GTPγS, test compounds at various concentrations (CP55940/Rimonabant as controls and test compounds for BB8 conjugates), and 1.4 mg/mL fatty acid-free BSA in siliconized glass tubes. Membranes with bound ligand ([^35S]GTPγS) were separated from free ligand by vacuum filtration and were analyzed using β counter as described above. Non-specific binding was determined using 10 μM GTPS (cold GTP). Basal binding was assayed in the absence of the tested compound and in the presence of GDP.

The next series deals with MDR1-MDCKII cells. Briefly: MDR1-MDCK II cell permeation assay (bi-directional permeability, P-gp efflux). The format is in vitro ADME. On the procedure: (§3) Test and reference compounds were diluted with transport buffer (HBSS with 10 mM Hepes, pH 7.4) from stock solution to a concentration of 2 μM (DMSO<1%) and applied to the apical or basolateral side of the cell monolayer. Permeation of the test compounds from A to B direction or B to A direction was determined in duplicate with/without P-gp inhibitor (GF120918, 10 μM). […] The plate was incubated for 2.5 hours in CO2 incubator at 37±1° C., with 5% CO2 at saturated humidity without shaking. In addition, the efflux ratio of each compound was also determined. Test and reference compounds were quantified by LC-MS/MS analysis based on the peak area ratio of analyte/IS.
(§4) The in vitro bi-directional permeability across MDR1-MDCKII cells including P-glycoprotein (Pgp, ABCB1) efflux in the presence and absence of a P-gp inhibitor is an indicator as to the tendency of an orally administered compound to penetrate the brain.

A further series concerns P-gp (MDR1, ABCB1). The description is as above. The format is in vitro ADME. The conditions noted are these: dog; for Papp at 2.5 h, 2 μM: A to B. On the procedure: as §3, §4
The nature of series [4]: Tissue distribution: brain, plasma and liver levels after oral dosing. The series is classed as in vivo, C57BL/6J mice. To be noted: male, C57BL/6J, mouse, in vivo, po, 10 mg/kg. On the procedure:
Tissue distribution and pharmacokinetics: Tissue levels of antagonist: 3 male C57BL/6J mice (7-9 weeks, PO group) were used in this study. Mice were fasted prior to administration of test article and had access to food 4 hours post dosing. Appropriate amount of test article was accurately weighted and mixed with the appropriate volume of vehicle to get a clear oral solution. The formulation was prepared on the day of dosing, and mice were dosed via oral gavage up to 4 hr after formulation was prepared. After 1 hour, mice were scarified and about 200 μL blood was collected from cardiac puncture followed by plasma preparation. Brain and liver were removed and further processed. Dose formulation and sample analysis was performed by LC-MS/MS method.
The peripherality of selected BB8 conjugates (BNS) was evaluated in vivo measuring their respective brain, plasma, and liver levels 1 hr following 10 mg/kg oral administration.

Another series concerns HepG2 Cells. Briefly: Cell Viability Assay in HepG2 Cells at 72 h. The series is classed as cell-based, human. The conditions noted are these: HepG2, 72 h. As for the experimental part:
The liver plays a central role in transforming and clearing chemicals, and therefore is susceptible to toxicity of these agents. BNS808, BNS822 and other selected compounds were tested in the HepG2 assay using […] to evaluate cytotoxicity.

The target in the next series is CYP 2D6 (Homo sapiens (Human), UniProt P10635). The experiment in a line: CYP inhibition in human liver microsomes. The format is in vitro ADME. To be noted: CYP isozyme 2D6, standard inhibitor. On the procedure: To evaluate the in vitro CYP inhibition of BNS808 and BNS822, the compounds were tested in human liver microsomes that are rich in drug metabolizing enzymes, including CYPs 1A2, 2C9, 2C19, 2D6, 3A4.
Chain of CYP 2D6 (P10635 whole entry): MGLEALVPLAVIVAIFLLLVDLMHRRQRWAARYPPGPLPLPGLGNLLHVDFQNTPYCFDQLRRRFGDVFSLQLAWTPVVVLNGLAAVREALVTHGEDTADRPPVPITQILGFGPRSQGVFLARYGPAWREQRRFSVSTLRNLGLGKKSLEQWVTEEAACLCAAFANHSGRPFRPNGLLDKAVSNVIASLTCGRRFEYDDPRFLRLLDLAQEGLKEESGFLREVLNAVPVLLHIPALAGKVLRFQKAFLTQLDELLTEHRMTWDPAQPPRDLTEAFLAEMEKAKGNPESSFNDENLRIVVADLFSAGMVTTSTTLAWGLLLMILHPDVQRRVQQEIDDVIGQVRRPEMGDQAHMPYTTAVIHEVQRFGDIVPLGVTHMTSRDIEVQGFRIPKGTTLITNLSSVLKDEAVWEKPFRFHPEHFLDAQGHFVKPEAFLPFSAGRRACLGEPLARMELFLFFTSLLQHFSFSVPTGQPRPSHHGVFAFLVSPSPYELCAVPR
For orientation: Liver microsomes are vesicles of endoplasmic reticulum, rich in cytochrome P450 enzymes.

Where [5] appears, read: MDCK-MDR1, pH 7.4, with GF120918, 10 μM, efflux ratio in the presence of P-gp inhibitor GF120918, read-out: MDR1 B:A/A:B (+P-gp inhibitor).
The mark [6] stands for this setting: MDCK-MDR1, pH 7.4, efflux ratio, without P-gp inhibitor, read-out: MDR1 B:A/A:B.

Where two headings read alike, the source gives them in different places. A value given as a limit tells only on which side of the number the result lay.

Chain of CB2 receptor (P34972 whole entry): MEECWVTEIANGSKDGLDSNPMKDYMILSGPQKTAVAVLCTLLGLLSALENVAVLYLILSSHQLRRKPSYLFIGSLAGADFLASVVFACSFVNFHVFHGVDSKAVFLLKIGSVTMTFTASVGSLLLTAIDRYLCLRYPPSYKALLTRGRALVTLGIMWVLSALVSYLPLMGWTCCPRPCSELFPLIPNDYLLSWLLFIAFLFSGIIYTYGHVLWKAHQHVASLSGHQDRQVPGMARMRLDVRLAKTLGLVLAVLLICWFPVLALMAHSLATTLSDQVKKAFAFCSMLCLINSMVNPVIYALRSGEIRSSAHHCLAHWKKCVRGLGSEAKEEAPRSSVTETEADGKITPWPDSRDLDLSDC

Turning to `O=C(NC1CCCOc2c1nn(-c1ccccc1Cl)c2-c1ccc(Cl)cc1)c1nc[nH]n1` (centres unmarked) [BNS801, N-[2-(2-chlorophenyl)-3-(4-chlorophenyl)-5,6,7,8-tetrahydrooxepino[3,2-c]pyrazol-8-yl]-1H-1,2,4-triazole-3-carboxamide], the figures for the Ki at CB1 receptor [1] and at CB1 receptor [2] were 232 nM and 805 nM, respectively.

Take `O=C(NC1CCCOc2c1nn(-c1ccccc1Cl)c2-c1ccc(Cl)cc1)c1cccnc1` (centres unmarked) [BNS803, N-[2-(2-chlorophenyl)-3-(4-chlorophenyl)-5,6,7,8-tetrahydrooxepino[3,2-c]pyrazol-8-yl]pyridine-3-carboxamide]: the inhibition constant (Ki) at CB2 receptor was > 9110 nM; at CB1 receptor [1] it was 6.48 nM; at CB1 receptor [2], 22.4 nM. The “mCB1R GTPγ[^35S] (activity)” value at CB1 receptor [3] is “Inverse agonist”. For the same molecule, in the series with MDR1-MDCKII cells, the P-gp substrate result is given as “No”. Also, the “Rank Papp” value with MDR1-MDCKII cells was “High”. The efflux ratio at 2.5 h, 2 μM came to 0.63 in the series on P-gp (MDR1, ABCB1) (setting [5]) and 0.77 with P-gp (MDR1, ABCB1) (setting [6]). Further, in the series on P-gp (MDR1, ABCB1) (MDCK-MDR1, pH 7.4), the apparent permeability (Papp) at 2.5 h, 2 μM was 13.2 ×10⁻⁶ cm/s. Moreover, the Kp at 1 h in series [4] is 1.6.

Regarding `CC(C)(Oc1ccc(Cl)cc1)C(=O)NC1CCCOc2c1nn(-c1ccccc1Cl)c2-c1ccc(Cl)cc1` (centres unmarked) [BNS804, 2-(4-chlorophenoxy)-N-[2-(2-chlorophenyl)-3-(4-chlorophenyl)-5,6,7,8-tetrahydrooxepino[3,2-c]pyrazol-8-yl]-2-methyl-propanamide], the Ki is 5700 nM at CB2 receptor, 1.96 nM at CB1 receptor [1] and 1.16 nM at CB1 receptor [2]. The “mCB1R GTPγ[^35S] (activity)” value on CB1 receptor [3] is “Antagonist”.

`O=C(NC1CCCOc2c1nn(-c1ccccc1Cl)c2-c1ccc(Cl)cc1)c1cnccn1` (centres unmarked) [BNS805, N-[2-(2-chlorophenyl)-3-(4-chlorophenyl)-5,6,7,8-tetrahydrooxepino[3,2-c]pyrazol-8-yl]pyrazine-2-carboxamide]: the inhibitory constant (Ki) on CB2 receptor was determined as 8340 nM; on CB1 receptor [1], 8.75 nM; at CB1 receptor [2], 77.8 nM. Also, the “mCB1R GTPγ[^35S] (activity)” value at CB1 receptor [3] is “Inverse agonist”. Besides, in the series with MDR1-MDCKII cells, the P-gp substrate entry is reported as “Partial”. The “Rank Papp” value in the series with MDR1-MDCKII cells is given as “Moderate”. Also, the efflux ratio at 2.5 h, 2 μM in the series on P-gp (MDR1, ABCB1) (setting [5]) is 0.55; in the series on P-gp (MDR1, ABCB1) (setting [6]), 0.82. Besides, the Papp at 2.5 h, 2 μM in the series with P-gp (MDR1, ABCB1) (MDCK-MDR1, pH 7.4) was 4.93 ×10⁻⁶ cm/s.

In the case of `O=C(NC1CCCOc2c1nn(-c1ccccc1Cl)c2-c1ccc(Cl)cc1)c1ncc[nH]1` (centres unmarked) [BNS806, N-[2-(2-chlorophenyl)-3-(4-chlorophenyl)-5,6,7,8-tetrahydrooxepino[3,2-c]pyrazol-8-yl]-1H-imidazole-2-carboxamide], the Ki was > 9110 nM at CB2 receptor, 23.7 nM on CB1 receptor [1] and 165 nM at CB1 receptor [2]. Also, the “mCB1R GTPγ[^35S] (activity)” value on CB1 receptor [3] is “Antagonist; In. Agonist >[c]”.

`Cc1ccc(S(=O)(=O)NC2CCCOc3c2nn(-c2ccccc2Cl)c3-c2ccc(Cl)cc2)cc1` (centres unmarked) [BNS807, N-[2-(2-chlorophenyl)-3-(4-chlorophenyl)-5,6,7,8-tetrahydrooxepino[3,2-c]pyrazol-8-yl]-4-methyl-benzenesulfonamide]: the Ki on CB2 receptor amounted to 1650 nM; on CB1 receptor [1], 1.4 nM; at CB1 receptor [2], 10 nM. The “mCB1R GTPγ[^35S] (activity)” value on CB1 receptor [3] was “Inverse agonist”. Also, the concentration for half-maximal inhibition (IC50) in the series on HepG2 Cells (Homo sapiens, read-out: Relative IC50) worked out at 18000 nM.

Consider `CS(=O)(=O)NC1CCCOc2c1nn(-c1ccccc1Cl)c2-c1ccc(Cl)cc1` (centres unmarked) [BNS809, N-[2-(2-chlorophenyl)-3-(4-chlorophenyl)-5,6,7,8-tetrahydrooxepino[3,2-c]pyrazol-8-yl]methanesulfonamide], for which the Ki on CB2 receptor was > 9110 nM; on CB1 receptor [1] it was 7.7 nM; at CB1 receptor [2] it was 33.8 nM. Also, the “mCB1R GTPγ[^35S] (activity)” value on CB1 receptor [3] is “Antagonist”.

As to `CS(=O)(=O)N1CCC(C(=O)NC2CCCOc3c2nn(-c2ccccc2Cl)c3-c2ccc(Cl)cc2)CC1` (centres unmarked) [BNS815, N-[2-(2-chlorophenyl)-3-(4-chlorophenyl)-5,6,7,8-tetrahydrooxepino[3,2-c]pyrazol-8-yl]-1-methylsulfonyl-piperidine-4-carboxamide], at CB2 receptor, the Ki worked out at 6310 nM. Further, at CB1 receptor [3], the “mCB1R GTPγ[^35S] (activity)” value is recorded as “Antagonist”. In the series with MDR1-MDCKII cells, the P-gp substrate entry is “P-gp substrates and Yes”; the “Rank Papp” value is listed as “High”. Also, the efflux ratio at 2.5 h, 2 μM in the series on P-gp (MDR1, ABCB1) (setting [5]) was found to be 0.63. The molecule further returned a Papp at 2.5 h, 2 μM in the series on P-gp (MDR1, ABCB1) (MDCK-MDR1, pH 7.4) of 10.1 ×10⁻⁶ cm/s. Moreover, in the series on HepG2 Cells (read-out: Absolute IC50), the half-inhibitory concentration (IC50) came out at 55900 nM. Also, the inhibition constant Ki at CB1 receptor [2] stood at 18 nM.

As for `C=C[C@H]1C[N@@]2CC[C@H]1C[C@@H]2[C@@H](O)c1ccnc2ccc(OC)cc12` [Quinidine, reference compound], the “% Inhibition” value at CYP 2D6 is recorded as 96.2%.

The Ki is a dissociation constant, usually derived from enzyme kinetics or from competition with a known ligand. One may read the Papp as a coefficient for how fast a substance crosses the barrier. As usually defined, the Kp is the ratio of the level in a tissue or fluid to that in plasma or blood. In general, IC50 refers to the concentration that inhibits the measured activity by half. As a reminder, the % Inhibition is the change of the read-out against control, counted positive when it falls. Low readings indicate a response near the control, high ones a response far below the control.
